According to patent publication US9522377B2, “Method for improving the properties of amphiphile particles” (CAMURUS AB, priority 2003, dated 2016):

Columns and labels:
[1] = for influence of drug on properties of the dispersions: 0.3% drug, GMOrphic/12% P407, non-autoclaved and autoclaved; for effect on lattice constant of cubic phase, autoclaved dispersions / effect on particle size of autoclaved dispersions: autoclaved 121° C., 15+5 min; for influence on non-autoclaved dispersions: chloramphenicol 0.3, 1 and 2%, miconazole 0.3 and 1%
Experimental: All drug concentrations are indicated relative to the sum of monoglyceride and poloxamer. A drug-free dispersion was prepared and investigated as a reference.
All dispersions were autoclaved at 121° C. for 15+5 min. (allowing for temperature equilibration in the autoclave) and their properties were compared to that of the corresponding non-autoclaved dispersions.

[2] = Active agent loading of cubic particles; assay type: physicochemical
Experimental: To the dispersions is added the cationic peptide desmopressin to a concentration of 1 mg/ml. The dispersion is allowed to equilibrate for 60 minutes at room temperature and reanalyzed for particle size and optionally phase behaviour. The particle size is not affected as determined using laser diffraction.
A dispersion of cubic particles of formulation GMO/OA/F-127 (84.5:4.5:10) was prepared as in Example 24. The steroid hormone progesterone was incubated with the cubic particles at room temperature as described for desmopressin in Example 22. The equilibrium loading level was 3% by weight.
The above method was repeated by the active agent progesterone was included in the aqueous phase prior to the homogenisation and heat treatment steps. The loading level was again examined and established to be 18 wt %. The effect upon the particle size distribution was minimal.

SMILES | influence of drug on properties of the dispersions [1] | effect on lattice constant of cubic phase, autoclaved dispersions [1] | effect on particle size of autoclaved dispersions [1] | influence on non-autoclaved dispersions [1] | also measured
CC(=O)Oc1c(C)c(C)c2c(c1C)CCC(C)(CCC[C@H](C)CCC[C@H](C)CCCC(C)C)O2 (some centres unmarked) [tocopherol acetate] | did not influence the properties of the resulting dispersions |  |  |  | 
Clc1ccc(COC(Cn2ccnc2)c2ccc(Cl)cc2Cl)c(Cl)c1 (centres unmarked) [miconazole] |  | decreased slightly | slightly larger (0.3%) and distinctly larger (1%) particle sizes | no influence on the non-autoclaved dispersions | 
CC(=O)[C@H]1CC[C@H]2[C@@H]3CCC4=CC(=O)CC[C@]4(C)[C@H]3CC[C@]12C [progesterone] |  |  |  |  | loading level ([2]; included in aqueous phase prior to homogenisation and heat treatment, GMO/OA/F-127 (84.5:4.5:10)): 18 wt %; equilibrium loading level ([2]; incubated with GMO/OA/F-127 (84.5:4.5:10) cubic particles at room temperature): 3 % by weight
CCCCC(=O)O[C@]1(C(=O)CO)[C@@H](C)C[C@H]2[C@@H]3CCC4=CC(=O)C=C[C@]4(C)[C@@]3(F)[C@@H](O)C[C@@]21C [betamethasone-17-valerate] |  |  |  |  | influence of drug on general behaviour of the dispersions ([1]; 0.3, 1 or 2% drug): no influence on the general behaviour of the dispersions
O=C(N[C@H](CO)[C@H](O)c1ccc([N+](=O)[O-])cc1)C(Cl)Cl [chloramphenicol] |  | slight increase in lattice constant | particle sizes increased distinctly with drug concentration | no influence on the non-autoclaved dispersions | 
COC1=C(OC)C(=O)C(C/C=C(\C)CC/C=C(\C)CC/C=C(\C)CC/C=C(\C)CC/C=C(\C)CC/C=C(\C)CC/C=C(\C)CC/C=C(\C)CC/C=C(\C)CCC=C(C)C)=C(C)C1=O [Ubidecarenone, ubidecarenone] | did not influence the properties of the resulting dispersions |  |  |  | 
